What all share (assay type): cell-based, human
Assay [1] has as its system leukemia HL-60 cells. The experiment in a line: In vitro cell inhibition assay, CCK-8 method, HL-60. The conditions noted are these: HL-60 cells, CCK-8 method. The procedure: (§1) After the cell culture flasks gently shaking, culture fluid was discarded in clean bench. […] Cells were collected and transferred to centrifuge tube. For the non-adherent cells HL-60, CCRF-CEM and MOLT-4, cell flasks were picked up from incubator and then transferred to the centrifuge tubes directly. After cells were collected using centrifuge at 1000 rpm/min for 5 min, the fluid was discarded. Then cells were washed for one time by PBS, discard fluid. Then add some medium, count cells under inverted microscope using blood cell counting plate, according the counting number to making the density of adherent cell was 1×10^5 cells/mL, the non-adherent cell was 2×10^5 cells/mL (the volumes of HL-60, CCRF-CEM, MOLT-4 are smaller than non-adherent cells, these cells added to each well was much more higher). Add 50 μL aliquots to each well of 96-well plates (the density of adherent cells was 5000 cells/well, non-adherent cells was 10000 cells/well). Blank control, Negative control, blank control with compounds and positive control wells were grouped, and three replicate wells were used for each data point in the experiments. Then the cells were cultured in 5% incubator for overnight at 37° C., Then the different concentration compounds were added to each well. After incubation for 48 h, according to the manufacturer's instructions, CCK-8 reagent (10 μl) was added and incubation was continued for a further 2-4 h. The absorbance (A) of each well was read at 450 nm using a plate reader.
On the technique in general: Tetrazolium assays rely on reduction of a dye to a coloured formazan, in cell work by metabolically active cells.

The test system of assay [2] is non-small cell lung cancer A549 cells. The experiment in a line: In vitro cell inhibition assay, CCK-8 method, A549. Particulars: 48 h incubation. The procedure: as §1
Assay [3] has as its system leukemia HL-60 cells. The experiment in a line: In vitro cell inhibition assay (MTT method), HL-60. Particulars: 48 h. The procedure:
(§2) The human cancer cell lines used for this assay were lung cancer A549 and leukemia HL-60.
(§3) The A549 or HL-60 cells were picked up from cell incubator, after washed for twice using PBS, cells were digested by 0.25% trypsin, and then add medium to terminate the digestion. After cells were collected using centrifuge and re-suspended, count cells under inverted microscope and add medium to make a density was 5×10^4 cells/mL. After 100 μL aliquots were added to each well of 96-well microtiter plates, cells were cultured in 5% incubator for overnight at 37° C., then the different concentration compounds were added to each well. After incubation for 48 h, MTT solution was added to each well and plates were then incubated for 4 h. The MTT tetrazolium was reduced to formazan by living cells. Then the formazan crystals were dissolved though adding DMSO to each well. The absorbance was read at 570 nm with a microplate reader.

The test system of the next assay is lung cancer A549 cell. The experiment in a line: In vitro cell inhibition assay (MTT method), A549. The conditions noted are these: 48 h incubation. The procedure:
as §2, §3

Structures are written as SMILES.

With `COC(=O)c1ccc(Nc2c(Cl)c(Cl)c(C#N)c(Cl)c2C#N)cc1` [Compound 6-25], the “Proliferation inhibitory effect of the compounds on HL-60 cells (% of Control)” value in the assay on leukemia HL-60 cells [1] (concentration 0.01 μM) is recorded as 11.52 % of Control; in the assay on leukemia HL-60 cells [1] (concentration 0.1 μM) it was 42.54 % of Control; in the assay with leukemia HL-60 cells [1] (concentration 1 μM), 84.06 % of Control; in the assay with leukemia HL-60 cells [1] (concentration 10 μM) it was 92.02 % of Control; in the assay on leukemia HL-60 cells [1] (concentration 100 μM), 84.30 % of Control. Further, the “Proliferation inhibitory effect of the compounds on A549 cells (% of Control)” value in assay [2] (CCK-8, 0.01 μM) is on record as 15.66 % of Control; in assay [2] (CCK-8, 0.1 μM), 18.59 % of Control; in assay [2] (CCK-8, 1 μM), 17.11 % of Control; in assay [2] (CCK-8, 10 μM) it was 55.87 % of Control; in assay [2] (CCK-8, 100 μM), 81.32 % of Control.
Regarding `N#Cc1c(Cl)c(Cl)c(Nc2ccc(C(F)(F)F)cc2)c(C#N)c1Cl` [Compound 6-24], the “Proliferation inhibitory effect of the compounds on HL-60 cells (% of Control)” value in the assay on leukemia HL-60 cells [1] (concentration 0.01 μM) is reported as 0.00 % of Control; in the assay with leukemia HL-60 cells [1] (concentration 0.1 μM), 17.55 % of Control; with leukemia HL-60 cells [1] (concentration 1 μM), 48.39 % of Control; with leukemia HL-60 cells [1] (concentration 10 μM), 56.72 % of Control; in the assay on leukemia HL-60 cells [1] (concentration 100 μM), 95.11 % of Control. The “Proliferation inhibitory effect of the compounds on A549 cells (% of Control)” value in assay [2] (CCK-8, 0.01 μM) is recorded as 22.06 % of Control; in assay [2] (CCK-8, 0.1 μM), 24.27 % of Control; in assay [2] (CCK-8, 1 μM) it was 31.44 % of Control; in assay [2] (CCK-8, 10 μM) it was 60.31 % of Control; in assay [2] (CCK-8, 100 μM), 87.36 % of Control.
With `COC(=O)c1cc(Cl)c(Nc2c(Cl)c(Cl)c(C#N)c(Cl)c2C#N)c(Cl)c1` [Compound 6-100], the “Proliferation inhibitory effect of the compounds on HL-60 cells (% of Control)” value is reported as 14.24 % of Control in the assay with leukemia HL-60 cells [1] (concentration 0.01 μM); 26.90 % of Control in the assay with leukemia HL-60 cells [1] (concentration 0.1 μM); 39.47 % of Control in the assay with leukemia HL-60 cells [1] (concentration 1 μM); 49.85 % of Control in the assay on leukemia HL-60 cells [1] (concentration 10 μM); 97.42 % of Control in the assay on leukemia HL-60 cells [1] (concentration 100 μM). Also, the “Proliferation inhibitory effect of the compounds on A549 cells (% of Control)” value is given as 43.98 % of Control in assay [2] (CCK-8, 0.01 μM); 50.53 % of Control in assay [2] (CCK-8, 0.1 μM); 52.15 % of Control in assay [2] (CCK-8, 1 μM); 57.45 % of Control in assay [2] (CCK-8, 10 μM); 89.94 % of Control in assay [2] (CCK-8, 100 μM).
As for `N#Cc1c(Cl)c(Cl)c(Nc2c(Cl)cc(Br)cc2Cl)c(C#N)c1Cl` [Compound 6-201], the “Proliferation inhibitory effect of the compounds on HL-60 cells (% of Control)” value with leukemia HL-60 cells [1] (concentration 0.01 μM) was 40.59 % of Control; in the assay with leukemia HL-60 cells [1] (concentration 0.1 μM), 48.61 % of Control; in the assay on leukemia HL-60 cells [1] (concentration 1 μM), 75.70 % of Control; with leukemia HL-60 cells [1] (concentration 10 μM), 86.76 % of Control; in the assay with leukemia HL-60 cells [1] (concentration 100 μM), 98.14 % of Control. Further, the “Proliferation inhibitory effect of the compounds on A549 cells (% of Control)” value was 14.31 % of Control in assay [2] (CCK-8, 0.01 μM); 19.63 % of Control in assay [2] (CCK-8, 0.1 μM); 26.90 % of Control in assay [2] (CCK-8, 1 μM); 60.23 % of Control in assay [2] (CCK-8, 10 μM); 83.86 % of Control in assay [2] (CCK-8, 100 μM).
With `N#Cc1c(Cl)c(Cl)c(Nc2ccc(Br)cc2Cl)c(C#N)c1Cl` [Compound 6-45], the “Proliferation inhibitory effect of the compounds on HL-60 cells (% of Control)” value in the assay on leukemia HL-60 cells [1] (concentration 0.01 μM) is on record as 0.00 % of Control; in the assay with leukemia HL-60 cells [1] (concentration 0.1 μM) it was 27.78 % of Control; in the assay with leukemia HL-60 cells [1] (concentration 1 μM), 39.89 % of Control; in the assay on leukemia HL-60 cells [1] (concentration 10 μM), 52.09 % of Control; with leukemia HL-60 cells [1] (concentration 100 μM), 80.30 % of Control.
Turning to `N#Cc1c(Cl)c(Cl)c(Nc2ccc(Cl)c(Cl)c2)c(C#N)c1Cl` [Compound 6-43], the “Proliferation inhibitory effect of the compounds on HL-60 cells (% of Control)” value in the assay on leukemia HL-60 cells [1] (concentration 0.01 μM) is recorded as 23.65 % of Control; with leukemia HL-60 cells [1] (concentration 0.1 μM), 31.60 % of Control; in the assay on leukemia HL-60 cells [1] (concentration 1 μM) it was 38.45 % of Control; in the assay with leukemia HL-60 cells [1] (concentration 10 μM), 73.80 % of Control; in the assay on leukemia HL-60 cells [1] (concentration 100 μM) it was 78.53 % of Control.
For `N#Cc1c(Cl)c(Cl)c(Nc2ccc(Cl)cc2Cl)c(C#N)c1Cl` [Compound 6-39], the “Proliferation inhibitory effect of the compounds on HL-60 cells (% of Control)” value in the assay with leukemia HL-60 cells [3] (concentration 0.01 μM) is on record as 11.9 % of Control; in the assay on leukemia HL-60 cells [3] (concentration 0.1 μM), 14.7 % of Control; in the assay with leukemia HL-60 cells [3] (concentration 1 μM) it was 31.0 % of Control; in the assay on leukemia HL-60 cells [3] (concentration 10 μM), 78.5 % of Control; in the assay with leukemia HL-60 cells [3] (concentration 100 μM), 80.8 % of Control. Also, the “Proliferation inhibitory effect of the compounds on A549 cell (% of Control)” value in the assay with lung cancer A549 cell (0.01 μM) is listed as 18.3 % of Control; in the assay on lung cancer A549 cell (0.1 μM), 18.8 % of Control; in the assay on lung cancer A549 cell (1 μM) it was 19.6 % of Control; with lung cancer A549 cell (10 μM), 24.9 % of Control; in the assay with lung cancer A549 cell (100 μM), 92.6 % of Control.
Consider `N#Cc1c(Cl)c(Cl)c(Nc2ccccc2)c(C#N)c1Cl` [Compound 6-1], for which the “Proliferation inhibitory effect of the compounds on HL-60 cells (% of Control)” value in the assay with leukemia HL-60 cells [3] (concentration 0.01 μM) is recorded as 11.5 % of Control; in the assay on leukemia HL-60 cells [3] (concentration 0.1 μM), 10.4 % of Control; in the assay on leukemia HL-60 cells [3] (concentration 1 μM), 18.8 % of Control; in the assay with leukemia HL-60 cells [3] (concentration 10 μM), 63.9 % of Control; with leukemia HL-60 cells [3] (concentration 100 μM), 61.9 % of Control. In addition, the “Proliferation inhibitory effect of the compounds on A549 cell (% of Control)” value was 13.1 % of Control in the assay with lung cancer A549 cell (0.01 μM); 12.1 % of Control in the assay on lung cancer A549 cell (0.1 μM); 16.9 % of Control in the assay on lung cancer A549 cell (1 μM); 20.4 % of Control in the assay on lung cancer A549 cell (10 μM); 19.8 % of Control in the assay on lung cancer A549 cell (100 μM).
As for `N#Cc1c(Cl)c(Cl)c(Nc2c(Cl)cc([N+](=O)[O-])cc2Cl)c(C#N)c1Cl` [Compound 6-99], the “Proliferation inhibitory effect of the compounds on HL-60 cells (% of Control)” value in the assay with leukemia HL-60 cells [3] (concentration 0.01 μM) was 8.6 % of Control; in the assay on leukemia HL-60 cells [3] (concentration 0.1 μM) it was 34.2 % of Control; with leukemia HL-60 cells [3] (concentration 1 μM), 60.2 % of Control; in the assay with leukemia HL-60 cells [3] (concentration 10 μM), 56.5 % of Control; in the assay with leukemia HL-60 cells [3] (concentration 100 μM) it was 54.8 % of Control. The “Proliferation inhibitory effect of the compounds on A549 cell (% of Control)” value with lung cancer A549 cell (0.01 μM) is on record as 0 % of Control; with lung cancer A549 cell (0.1 μM), 0 % of Control; with lung cancer A549 cell (1 μM), 55.0 % of Control; in the assay with lung cancer A549 cell (10 μM) it was 83.6 % of Control; with lung cancer A549 cell (100 μM), 86.3 % of Control.

The values above are taken from patent US9376376B2, “Substitute diphenylamine compounds use thereof as antitumor agents” (SINOCHEM CORPORATION, priority 2012, dated 2016).
